Test results published in US8486651B2, “Method for treating a disorder associated with Eya dysregulation by modulating Eya phosphatase activity” (Children's Hospital Medical Center, priority 2008, dated 2013).

What was measured:
Eya = Eya phosphatase activity pNPP screen, plate controls; format: biochemical; details: plate control
Experimental: Phosphatase Activity Assay. Phosphatase activity of Eya is measured using the p-nitrophenyl phosphate (pNPP) assay. In this assay, reaction mixtures of approximately 60 uL in 20 mM MES (pH 5.5), various concentrations of pNPP and cations are pre-equilibrated at 30° C. for 10 minutes. The assay is initiated by the addition of 0.3 ug of enzyme in 20 mM Tris (pH 8.0) and 150 mM NaCl. The reaction mixture is incubated for 20 minutes, and then quenched with 100 uL of 0.4 M EDTA, pH 10.0. Release of p-nitrophenol (pNP) is monitored by measuring absorbance at a wavelength of 410 (A410) and extrapolating the values into the Michaelis-Menten equation using SIGMAPLOT (SPSS Science, Chicago, Ill.). pNP release can be plotted as a function of time when various enzyme concentrations are used.
The protocol is substantially that described in references 4, 17 and 18. Eya phosphatase activity is measured using the model chromogenic substrate p-nitro-phenylphosphate (pNPP) as described. […] To ensure data quality and assay robustness, the Z value is used. The Z value is based on the difference between the signal of the positive control (ie, no test compound) and that of the negative control (no Eya protein or polypeptide). The Z value incorporates the standard deviation of each signal. A Z value of 1.0 is considered perfect, and Z values above 0.5 are generally considered ideal for HTS. […] In both the primary and secondary screen, every plate also contains three additional controls: 20 mM Na-o-vanadate (which inhibits Eya), 20 mM EDTA (which inhibits 100% of Eya activity) and 50 mM NaF (which inhibits Eya).

[1] = test system: T1, histone H2AX C-terminus peptide (KKATQASQEpY)
T1 sequence: KKATQASQEY

human SIX6 = biological target: T2, human SIX6 (UniProt O95475)
T2 sequence: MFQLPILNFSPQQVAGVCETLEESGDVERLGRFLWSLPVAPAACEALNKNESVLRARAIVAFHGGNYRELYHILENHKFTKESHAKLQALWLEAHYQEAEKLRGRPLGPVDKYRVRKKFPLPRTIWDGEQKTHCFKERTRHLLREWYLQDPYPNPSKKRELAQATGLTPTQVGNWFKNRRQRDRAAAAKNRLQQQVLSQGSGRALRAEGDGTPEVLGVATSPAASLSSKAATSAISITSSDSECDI

[2] = test system: T3, Six2 fragment derived from mouse Six protein (SEQ ID NO. 6)
T3 sequence: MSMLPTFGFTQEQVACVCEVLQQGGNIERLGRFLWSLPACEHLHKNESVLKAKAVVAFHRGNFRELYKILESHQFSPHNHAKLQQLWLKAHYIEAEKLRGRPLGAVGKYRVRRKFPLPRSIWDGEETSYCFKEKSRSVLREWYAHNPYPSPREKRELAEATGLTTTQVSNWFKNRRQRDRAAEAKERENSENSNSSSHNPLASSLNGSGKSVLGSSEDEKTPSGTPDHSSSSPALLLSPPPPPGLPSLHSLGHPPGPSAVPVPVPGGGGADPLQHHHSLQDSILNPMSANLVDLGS

Q: [Na+].[Na+].[Na+].[O]=[V]([O-])([O-])[O-] [Na-o-vanadate] was tested. Which “inhibition of Eya” value (Eya; 20 mM Na-o-vanadate) did it give?
A: The value was “inhibits Eya”.

Q: How did the “inhibition of Eya activity” value (Eya; 20 mM EDTA) turn out when O=C(O)CN(CCN(CC(=O)O)CC(=O)O)CC(=O)O [EDTA] was run?
A: The value was 100%.

Q: [F-].[Na+] [NaF] was tested. Which “inhibition of Eya” value (Eya; 50 mM NaF) did it give?
A: Its value is “inhibits Eya”.

Q: Which “catalytic rate of dephosphorylation of the tyrosine-phosphorylated H2AX peptide” value [1] does the source give for Full-length murine Eya3 here?
A: Its value is “The ability of Eya3 to dephosphorylate a tyrosine-phosphorylated peptide derived from H2AX was monitored in the presence or absence of stoichiometric amounts of either SIX2 or SIX6. The catalytic rate at increasing concentrations of H2AX-pY peptide was measured”.

Q: What about the “kcat of Eya3 (dephosphorylation of the H2AX-pY peptide, malachite-green type phosphate release), with stoichiometric SIX6” value (human SIX6) of the same molecule?
A: Its value is “The interaction with these SIX proteins increases the kcat of Eya3, while the Km values remain relatively similar”.

Q: What about the “kcat of Eya3 (dephosphorylation of the H2AX-pY peptide, malachite-green type phosphate release), with stoichiometric SIX2” value [2] of the same molecule?
A: The value was “The interaction with these SIX proteins increases the kcat of Eya3, while the Km values remain relatively similar”.
